In US20250066286A1, “COMPOSITIONS OF (Z)-ENDOXIFEN AND METHODS OF ENRICHMENT THEREOF” (Atossa Therapeutics, Inc., priority 2022, published 2025):
Where two headings read alike, the source gives them in different places. Blank lines part the entries; values can stand above or below the compound they belong to.

Experiments:
Assay type in all cases: physicochemical
[1] = Storage stability of polymorphic forms at room temperature in a sealed vial (XRPD time course)
Experimental: Form I samples were collected for XR-PD analysis following 0, 7, and 42 days of storage, the results of which are shown in FIG. 10.
The stability of polymorphic Form IV was evaluated over 7 days of storage at room temperature in a sealed vial. Portions of the Form IV samples were collected for XRPD analysis following 0 (Form IV), 3 (Form IV-3D3-storage), and 7 days (Form IV-7D3-storage) of storage, the results of which are shown in FIG. 14.
The stability of polymorphic Form IV was also evaluated following crystallization from a room temperature 2-propanol/THF 95/5 (v/v) solvent system containing 40 mg/ml (Z)-endoxifen. XPRD was collected immediately after recovery and following 15 days storage at room temperature in a sealed vial. FIG. 15 provides the resultant XRPD patterns following 15 days storage (Form IV-2PR/THF-15D-storage) and 0 days storage (Form IV-2PR/THF-0D-storage), as well as an XRPD spectrum of Form IV (Form IV) obtained from 2-propanol recrystallization.
Since the room temperature evaporation in acetone yielded a mixture of polymorphic Form I and Form IV XRPD patterns with a very intense unassigned signal at 16.1° 2θ, the sample was re-measured following 7 days storage in a sealed vial. From top to bottom, FIG. 16 provides XRPD patterns of the acetone-generated polymorphs following 7 (EVRT-ACT-7D-storage) and 0 days of storage (EVRT-ACT-0D-storage), a Form IV spectrum (Form IV), and a Form I (Form I) spectrum, respectively.
Form XVII was further assessed after 3 days storage in a sealed vial at room temperature.
Form XVIII was further reassessed by XRPD following 3 and 7 days storage at room temperature in a sealed vial. The data from these analyses are summarized in FIG. 24, which (from top to bottom) provides the sample following 7 days storage (Form XVIII-7D-storage), the sample following 3 days storage (Form XVIII-3D-storage), and the sample immediately following crystallization (Form XVIII).
Form XIX room temperature stability was evaluated with XRPD. XRPD of a Form XIX sample immediately following crystallization (Form XIX) and following 7 days of storage (Form XIX-7D-storage) are shown in FIG. 26.
The stability of polymorphic Form V was over 10 days of storage at room temperature in a sealed vial. XR-PD was performed following 0, 3, and 10 days storage.
To evaluate Form VI stability, XRPD spectra of a Form VI sample were collected following 0, 3, and 14 days of room temperature storage in a sealed vial. The resulting XRPD patterns of the sample following 0 (Form VI), 3 (Form VI-3D-storage), and 14 days storage (Form VI-14D-storage) are shown in FIG. 30.
The stability of polymorphic Form VII was evaluated over 7 days of storage at room temperature in a sealed vial. Portions of the Form VII samples were collected for XRPD analysis over 7 days of storage, the results of which are shown in FIG. 32.
Form VIII stability over 7 days storage in a sealed vial at room temperature was evaluated with XRPD.
The stability of Form IX generated by precipitation from an ethyl acetate/heptane solvent system (Form IX Recrystallization (1)) was evaluated over 7 days of storage at room temperature. Portions of the Form IX sample were collected following 0 and 7 days of storage in a sealed vial and analyzed by XRPD analysis to identify possible changes in the polymorph.
Form IX stability was separately characterized for crystals generated through the addition of (Z)-endoxifen saturated ethyl acetate to heptane (Form IX Recrystallization (2)), which yielded higher crystallinity Form IX than was afforded by heptane addition to (Z)-endoxifen saturated ethyl acetate.
Form IX stability was further evaluated for crystals generated by precipitation from an acetone/butyl methyl ether (acetone/BME) solvent/antisolvent mixture (Form IX Recrystallization (4)). Portions of the Form IX sample were collected following 0 and 5 days of storage in a sealed vial at room temperature and compared to reference XRPD patterns of Forms VII and IX. […]

[2] = Mechanical stability: grinding and kneading by ball milling (XRPD); settings: for XRPD pattern after mechanical grinding: 10 minutes ball milling at 30 Hz; for XRPD pattern after kneading: 10 minutes ball milling at 30 Hz with catalytic 2-propanol (2 μl)
Experimental: Stability tests were performed on mixtures of Form I and Form IV; Form I and Form VII; and Form I, Form IV, and Form VII. In a first mechanical stability test, the polymorphs were analyzed by XRPD following 10 minutes of grinding by ball milling at 30 Hz. In a second mechanical stability test, the polymorphs were analyzed by XRPD following 10 minutes of kneading by ball milling at 30 Hz in the presence of a catalytic amount of 2-propanol (2 μl).

[3] = Stability at various temperatures and relative humidities, seven days (XRPD); settings: 7 days
Experimental: The stabilities of the polymorphs were also assessed at various temperatures and relative humidities. These analyses were performed by storing 20 mg of polymorph samples for seven days at: (1) 25° C. and 100% relative humidity, (2) 40° C. and 75% relative humidity, (3) 25° C. and 60% relative humidity, and (4) at 60° C. and 75% relative humidity. XRPD was collected on the samples following these incubations and compared to XRPD of the samples prior to storage.

[4] = Thermogravimetric analysis (TGA), degradation
Experimental: The TGA profile of Form I is shown in the top panel of FIG. 12 with the heat-flow profile in the middle panel of FIG. 12, and the first derivative of the TGA profile in the bottom pane of FIG. 12. […] A weight loss of 0.2% was detected between 140° C. and 180° C., potentially ascribable to solvent release. Degradation of Form I took place above 270° C. The heat-flow profile included two main peaks around 50° C. and 160° C. The first derivative of the TGA profile indicated a greatest decline in the TGA profile occurred around 400° C., and that weight loss occurred around 320° C.

[5] = 25° C. and 100% relative humidity
[6] = 40° C. and 75% relative humidity
[7] = 3 days, room temperature, sealed vial
[8] = 7 days, room temperature, sealed vial

XRPD change on storage [1, 8]: stable under ambient conditions
SMILES: CC/C(=C(\c1ccc(O)cc1)c1ccc(OCCNC)cc1)c1ccccc1 [Form XIX, (Z)-endoxifen]

Room temperature stability ([1]; duration not given): limited room temperature stabilities
SMILES: CC/C(=C(\c1ccc(O)cc1)c1ccc(OCCNC)cc1)c1ccccc1 [Form XV, (Z)-endoxifen]

XRPD change on storage [1, 8]: partial amorphization
SMILES: CC/C(=C(\c1ccc(O)cc1)c1ccc(OCCNC)cc1)c1ccccc1 [Form XVIII, (Z)-endoxifen]

XRPD change on storage [1, 8]: No significant changes were detected
SMILES: CC/C(=C(\c1ccc(O)cc1)c1ccc(OCCNC)cc1)c1ccccc1 [Forms I and IV polymorphic mixture, (Z)-endoxifen]

XRPD pattern after mechanical grinding [2]: Form I with traces of Form IV | XRPD pattern after storage ([3]; 25° C./60% RH): mixture of Form I and Form IV | XRPD pattern after storage ([3]; 60° C./75% RH): XRPD pattern of Form I
SMILES: CC/C(=C(\c1ccc(O)cc1)c1ccc(OCCNC)cc1)c1ccccc1 [mixture of Form I and Form IV, (Z)-endoxifen]
XRPD pattern after kneading [2]: Form I with a signal at 4.8° 20 ascribable to Form IV

XRPD pattern after storage ([3]; 25° C./60% RH): mixture of Form I, Form IV, and Form VII | XRPD pattern after storage ([3]; 60° C./75% RH): mixture of Form I and Form VII
SMILES: CC/C(=C(\c1ccc(O)cc1)c1ccc(OCCNC)cc1)c1ccccc1 [mixture of Form I, Form IV, and Form VII, (Z)-endoxifen]
XRPD pattern after mechanical grinding [2]: Form I with a slightly lowered degree of crystallinity | XRPD pattern after kneading [2]: Form I with a mild signal at 4.8° 20 ascribable to Form IV

XRPD change on storage ([1]; 4 days, room temperature, sealed vial): conversion of Form XIII to Form XII | XRPD change on storage ([1]; 5 days total, room temperature, sealed vial): conversion to only Form XII
SMILES: CC/C(=C(\c1ccc(O)cc1)c1ccc(OCCNC)cc1)c1ccccc1 [mixture of Form XII and Form XIII, (Z)-endoxifen]

Further lines, the compound ahead of its results:

SMILES: CC/C(=C(\c1ccc(O)cc1)c1ccc(OCCNC)cc1)c1ccccc1 [Form I, (Z)-endoxifen]
XRPD change on storage ([1]; 0, 7, and 42 days of storage): stable under ambient conditions | XRPD pattern after mechanical grinding [2]: converted portions of Form I to amorphous endoxifen | XRPD pattern after kneading [2]: converted portions of Form I to amorphous endoxifen | XRPD pattern after storage [3, 5]: did not induce detectable changes in the Form I XRPD | XRPD pattern after storage [3, 6]: no significant changes to the XRPD pattern | Degradation temperature (TGA) [4]: above 270 °C | Degradation temperature (TGA) ([4]; sample from scaled-up crystallization): 270 °C

SMILES: CC/C(=C(\c1ccc(O)cc1)c1ccc(OCCNC)cc1)c1ccccc1 [Form IX, (Z)-endoxifen]
XRPD change on storage ([1]; 5 days, room temperature, sealed vial, Form IX from acetone/butyl methyl ether (Form IX Recrystallization (4))): new signal at 9.1° 2θ, possibly indicating the presence of Form VII as well as partial amorphization of the sample | XRPD change on storage ([1]; 7 days, room temperature, sealed vial, Form IX Recrystallization (1), ethyl acetate/heptane): stable under ambient conditions | XRPD change on storage ([1]; 7 days, room temperature, sealed vial, Form IX Recrystallization (2)): weak XRPD signals ascribable to small amounts of Form I | XRPD change on storage ([1]; 8 days, room temperature, sealed vial, Form IX from room temperature ethyl acetate/heptane 50/50 (v/v) slurries, unassigned signals at 10.1, 11.7, 16.8, 18.5, 19.4, 23.1): these peaks persisted following 8 days of storage | XRPD change on storage ([1]; 13 days, room temperature, sealed vial, Form IX Recrystallization (2)): weak XRPD signals ascribable to small amounts of Form I | Degradation temperature (TGA) [4]: above 270 °C

SMILES: CC/C(=C(\c1ccc(O)cc1)c1ccc(OCCNC)cc1)c1ccccc1 [Form V, (Z)-endoxifen]
XRPD change on storage [1, 7]: converted almost completely to Form VI | XRPD change on storage ([1]; 10 days, room temperature, sealed vial): completely to Form VI

SMILES: CC/C(=C(\c1ccc(O)cc1)c1ccc(OCCNC)cc1)c1ccccc1 [Form VI, (Z)-endoxifen]
XRPD change on storage ([1]; 14 days, room temperature, sealed vial): stable under ambient conditions

SMILES: CC/C(=C(\c1ccc(O)cc1)c1ccc(OCCNC)cc1)c1ccccc1 [Form VII, (Z)-endoxifen]
XRPD change on storage [1, 8]: stable under ambient conditions | XRPD pattern after storage [3, 5]: no significant change to the XRPD pattern | XRPD pattern after storage [3, 6]: no significant change to the XRPD pattern | Degradation temperature (TGA) [4]: above 270 °C

SMILES: CC/C(=C(\c1ccc(O)cc1)c1ccc(OCCNC)cc1)c1ccccc1 [Form VIII, (Z)-endoxifen]
XRPD change on storage [1, 8]: no significant difference

SMILES: CC/C(=C(\c1ccc(O)cc1)c1ccc(OCCNC)cc1)c1ccccc1 [Form X, (Z)-endoxifen]
XRPD change on storage [1, 8]: near complete conversion to Form XI

SMILES: CC/C(=C(\c1ccc(O)cc1)c1ccc(OCCNC)cc1)c1ccccc1 [Form XI, (Z)-endoxifen]
XRPD change on storage ([1]; 18 days, room temperature): stable under ambient conditions

SMILES: CC/C(=C(\c1ccc(O)cc1)c1ccc(OCCNC)cc1)c1ccccc1 [Form XII, (Z)-endoxifen]
XRPD change on storage ([1]; 2 days, room temperature, sealed vial): stable under ambient conditions

SMILES: CC/C(=C(\c1ccc(O)cc1)c1ccc(OCCNC)cc1)c1ccccc1 [Form XIV, (Z)-endoxifen]
XRPD change on storage [1, 7]: partial conversion to Forms I and VII | XRPD change on storage [1, 8]: partial conversion to Forms I and VII

SMILES: CC/C(=C(\c1ccc(O)cc1)c1ccc(OCCNC)cc1)c1ccccc1 [Form XVII, (Z)-endoxifen]
XRPD change on storage [1, 7]: complete conversion of Form XVII (Form XVII) into Form I

SMILES: CC/C(=C(\c1ccc(O)cc1)c1ccc(OCCNC)cc1)c1ccccc1 [first mixture of Form I and Form VII, (Z)-endoxifen]
XRPD pattern after mechanical grinding [2]: amorphous (Z)-endoxifen with signals ascribable to Form I and Form VII

SMILES: CC/C(=C(\c1ccc(O)cc1)c1ccc(OCCNC)cc1)c1ccccc1 [second mixture of Form I and Form VII, (Z)-endoxifen]
XRPD pattern after mechanical grinding [2]: Form I and Form VII with slightly lowered crystallinity
